Our source for the IC50, AC50 and EC50 values is ChEMBL document CHEMBL1201862, “PubChem BioAssay data set” (2004).

The structures appear in SMILES notation. Active and inactive are the calls of the source.

Assay [1] concerns the target T1, Polyadenylate-binding protein 1 (Homo sapiens, UniProt P11940). Description: PABP1 MLLE–PAM2 interaction inhibitors, dose response, miRNA deadenylation inhibitor project, biochemical, fluorescence polarization, Cy5-PAM2 peptide, secondary (AID 602260). In kind it is functional. The conditions noted are these: read-out: IC50_Mean.
The target in assay [2] is T1, Polyadenylate-binding protein 1. Description: PABP1 MLLE–PAM2 binding inhibitor potency, dose response, biochemical, fluorescence polarization, FITC-PAM2 peptide (AID 602259). The conditions noted are these: read-out: IC50_Mean. It is filed as functional. A general note: In fluorescence polarisation assays a small probe gives low polarisation when free and higher when bound to something large.

For another assay, the target named is Protein S100-A4 (Homo sapiens, UniProt P26447). The assay can be described thus: S100A4-myosin IIA binding inhibitor potency, dose response, biochemical, fluorescence polarization, cherry-picked hits (AID 687001). In kind it is functional.
Protein S100-A4, sequence (P26447 whole entry): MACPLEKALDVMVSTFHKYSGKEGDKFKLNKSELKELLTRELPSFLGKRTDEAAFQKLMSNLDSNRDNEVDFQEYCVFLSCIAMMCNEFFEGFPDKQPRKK
Assay [3] deals with T2, Heat shock factor protein 1 (Mus musculus, UniProt P38532).
T2 sequence (P38532 whole entry): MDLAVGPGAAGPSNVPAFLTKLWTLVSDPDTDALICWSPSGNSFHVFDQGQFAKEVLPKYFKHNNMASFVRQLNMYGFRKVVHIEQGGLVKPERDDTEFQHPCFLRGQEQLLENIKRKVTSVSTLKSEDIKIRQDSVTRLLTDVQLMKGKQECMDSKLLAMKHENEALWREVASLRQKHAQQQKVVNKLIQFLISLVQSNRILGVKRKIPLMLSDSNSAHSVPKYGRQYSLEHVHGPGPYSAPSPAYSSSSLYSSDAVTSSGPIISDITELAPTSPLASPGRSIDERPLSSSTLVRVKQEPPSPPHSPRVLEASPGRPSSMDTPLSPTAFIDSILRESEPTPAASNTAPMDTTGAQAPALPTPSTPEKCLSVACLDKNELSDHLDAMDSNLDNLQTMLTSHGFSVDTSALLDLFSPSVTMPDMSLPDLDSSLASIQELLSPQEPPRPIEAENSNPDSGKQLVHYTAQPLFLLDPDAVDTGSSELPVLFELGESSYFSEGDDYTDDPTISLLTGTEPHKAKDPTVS
Description: inhibition of MG132-induced HSE-luciferase signal, confirmation, cell-based, NIH3T3, luminescence, dose retest (AID 2382).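 Also: NIH3T3 fibroblasts with HSF1-driven luciferase reporter stressed by proteasome inhibitor MG132; luminescence from HSF1-driven luciferase expression after 8 hours of MG132 stress.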 It is filed as functional.

The target of assay [4] is T3, Interleukin-8 (Homo sapiens, UniProt P10145).
T3 sequence (P10145 whole entry): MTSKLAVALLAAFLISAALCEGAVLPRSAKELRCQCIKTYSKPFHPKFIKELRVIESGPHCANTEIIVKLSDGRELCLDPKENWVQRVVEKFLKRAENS
Description: Dose Response confirmation of uHTS small molecule hits for cystic fibrosis induced NFkb Inhibitors in a TNFa-induced IL8 counterscreen. In kind it is functional. Particulars: read-out: IC50_Mean. In general terms: Counterscreens check selectivity or assay interference.

The target in assay [5] is T3, Interleukin-8. Description: Dose Response confirmation of uHTS small molecule hits for cystic fibrosis induced NFkb Inhibitors in a PAF-induced IL8 counterscreen. It is filed as functional. Particulars: read-out: IC50_Mean.
Assay [6] addresses Nuclear receptor subfamily 5 group A member 2 (Homo sapiens, UniProt O00482). In kind it is functional, cell-based.
The target in a further assay is Steroidogenic factor 1 (Homo sapiens, UniProt Q13285). Description: Counterscreen for inverse agonists of the liver receptor homolog-1 (LRH-1; NR5A2): Luminescence-based cell-based high throughput dose response assay to identify inverse agonists of the Steroidogenic Factor 1 Nuclear Receptor (SF1; NR5A1). In kind it is functional.
Steroidogenic factor 1, sequence (Q13285 whole entry): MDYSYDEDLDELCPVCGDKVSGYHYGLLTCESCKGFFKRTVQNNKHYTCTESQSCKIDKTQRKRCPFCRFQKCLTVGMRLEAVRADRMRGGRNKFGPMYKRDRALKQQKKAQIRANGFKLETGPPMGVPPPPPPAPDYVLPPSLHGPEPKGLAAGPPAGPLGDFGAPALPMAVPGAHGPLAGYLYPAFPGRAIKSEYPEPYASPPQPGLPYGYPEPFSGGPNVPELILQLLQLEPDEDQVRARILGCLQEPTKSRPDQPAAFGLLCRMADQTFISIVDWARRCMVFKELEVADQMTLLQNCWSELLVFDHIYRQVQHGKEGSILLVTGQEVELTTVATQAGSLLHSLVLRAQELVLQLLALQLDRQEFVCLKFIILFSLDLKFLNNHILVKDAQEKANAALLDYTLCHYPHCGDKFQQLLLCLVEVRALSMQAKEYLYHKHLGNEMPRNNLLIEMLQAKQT
Assay [7] can be described thus: StAR promoter reporter inhibition counter-screen, dose response, counter-screen for LRH-1 inverse agonist project, cell-based, luminescence, luciferase reporter (AID 651969). It is filed as functional.
A further assay concerns the target Mu-type opioid receptor (Homo sapiens, UniProt P35372). In kind it is functional, cell-based.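 Also: U2OS cells with beta-arrestin recruitment to OPRM1 by beta-gal complementation.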
The target in assay [8] is 5-hydroxytryptamine receptor 2A (Mus musculus, UniProt P35363). It is filed as functional, cell-based.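 Also: CHO-K1 cells with tagged receptor and beta-arrestin; agonist potency measured as compound-induced activation of the receptor.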
5-hydroxytryptamine receptor 2A, sequence (P35363 whole entry): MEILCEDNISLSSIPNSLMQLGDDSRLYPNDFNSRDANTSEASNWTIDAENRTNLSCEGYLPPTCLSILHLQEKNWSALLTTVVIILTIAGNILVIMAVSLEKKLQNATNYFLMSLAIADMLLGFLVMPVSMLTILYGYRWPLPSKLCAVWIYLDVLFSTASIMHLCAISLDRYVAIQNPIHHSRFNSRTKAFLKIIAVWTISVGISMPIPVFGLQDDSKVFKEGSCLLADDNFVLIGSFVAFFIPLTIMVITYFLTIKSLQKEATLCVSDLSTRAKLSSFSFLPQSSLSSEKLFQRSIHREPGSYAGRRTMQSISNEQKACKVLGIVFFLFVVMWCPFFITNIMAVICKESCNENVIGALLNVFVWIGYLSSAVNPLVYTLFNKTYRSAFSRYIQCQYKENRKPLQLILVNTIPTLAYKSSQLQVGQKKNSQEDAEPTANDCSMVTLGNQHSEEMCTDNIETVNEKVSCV
The test system of a further assay is Vero. The assay can be described thus: Vero cell toxicity, dose response, cytotoxicity control, plate reader, cherry-pick samples (AID 687020). It is filed as functional, cell-based. Particulars: Chlorocebus sabaeus.
The target in assay [9] is T4, Replicative DNA helicase DnaB (Mycobacterium tuberculosis, UniProt P9WMR3).
T4 sequence (P9WMR3 whole entry): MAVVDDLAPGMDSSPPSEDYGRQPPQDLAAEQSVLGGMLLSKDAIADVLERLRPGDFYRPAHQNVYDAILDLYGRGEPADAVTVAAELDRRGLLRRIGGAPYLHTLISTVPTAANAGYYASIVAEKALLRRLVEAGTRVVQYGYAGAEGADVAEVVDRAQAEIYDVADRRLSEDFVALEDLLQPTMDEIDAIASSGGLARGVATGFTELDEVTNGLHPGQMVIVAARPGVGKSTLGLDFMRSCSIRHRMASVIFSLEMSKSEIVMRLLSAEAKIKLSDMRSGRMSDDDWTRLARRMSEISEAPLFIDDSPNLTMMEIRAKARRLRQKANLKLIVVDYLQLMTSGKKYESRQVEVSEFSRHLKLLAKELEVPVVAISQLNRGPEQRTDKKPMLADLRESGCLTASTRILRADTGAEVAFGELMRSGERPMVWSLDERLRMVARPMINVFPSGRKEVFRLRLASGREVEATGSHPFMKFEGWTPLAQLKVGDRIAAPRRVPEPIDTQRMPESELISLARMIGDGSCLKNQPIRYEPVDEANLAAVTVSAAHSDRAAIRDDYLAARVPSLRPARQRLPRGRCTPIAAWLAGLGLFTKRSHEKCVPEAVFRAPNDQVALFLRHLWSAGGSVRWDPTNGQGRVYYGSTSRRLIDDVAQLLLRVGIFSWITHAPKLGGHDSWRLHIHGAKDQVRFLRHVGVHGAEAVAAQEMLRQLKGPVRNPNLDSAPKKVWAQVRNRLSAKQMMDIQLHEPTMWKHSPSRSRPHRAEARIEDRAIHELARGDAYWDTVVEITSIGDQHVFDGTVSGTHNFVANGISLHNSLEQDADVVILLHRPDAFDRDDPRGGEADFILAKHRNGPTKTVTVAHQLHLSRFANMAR
The assay can be described thus: DnaB intein splicing inhibitors, dose response, biochemical, cell-free fluorescence (AID 449749). In kind it is functional.

For another assay, the target named is T5, Protein RecA (Mycobacterium tuberculosis, UniProt P9WHJ3).
T5 sequence (P9WHJ3 whole entry): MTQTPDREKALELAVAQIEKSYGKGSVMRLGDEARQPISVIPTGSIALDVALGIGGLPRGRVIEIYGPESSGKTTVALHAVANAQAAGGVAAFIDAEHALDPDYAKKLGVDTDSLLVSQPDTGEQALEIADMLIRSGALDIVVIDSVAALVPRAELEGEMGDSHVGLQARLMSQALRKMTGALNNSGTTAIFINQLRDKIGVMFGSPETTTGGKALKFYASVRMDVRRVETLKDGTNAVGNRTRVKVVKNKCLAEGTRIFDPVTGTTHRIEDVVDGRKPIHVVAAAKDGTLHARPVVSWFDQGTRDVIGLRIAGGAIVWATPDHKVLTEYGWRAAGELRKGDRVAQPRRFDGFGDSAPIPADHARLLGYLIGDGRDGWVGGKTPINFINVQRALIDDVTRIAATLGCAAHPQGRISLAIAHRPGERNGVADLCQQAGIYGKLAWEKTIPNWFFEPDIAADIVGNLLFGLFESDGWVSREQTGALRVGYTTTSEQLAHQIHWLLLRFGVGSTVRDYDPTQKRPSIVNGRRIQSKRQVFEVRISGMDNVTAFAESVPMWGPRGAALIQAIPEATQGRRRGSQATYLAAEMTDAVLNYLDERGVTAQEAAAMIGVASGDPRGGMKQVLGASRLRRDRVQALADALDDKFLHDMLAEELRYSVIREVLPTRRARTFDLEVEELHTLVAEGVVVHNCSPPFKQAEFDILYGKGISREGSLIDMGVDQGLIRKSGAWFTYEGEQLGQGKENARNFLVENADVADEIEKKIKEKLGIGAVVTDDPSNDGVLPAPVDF
Description: Fluorescence Cell-Free Homogeneous Dose Retest to Identify Inhibitors of RecA-Intein Splicing Activity. [Related pubchem assays (depositor defined):AID2097, AID2223, AID489010, AID492950]. In kind it is functional.

For the next assay, the target named is Genome polyprotein (dengue virus type 2, UniProt P29990). Description: Dengue-2 NS5 methyltransferase inhibitors, primary screen, biochemical, confirmation dose response (AID 588689). It is filed as functional.
Genome polyprotein, sequence (P29990 2492-3391 limits assumed): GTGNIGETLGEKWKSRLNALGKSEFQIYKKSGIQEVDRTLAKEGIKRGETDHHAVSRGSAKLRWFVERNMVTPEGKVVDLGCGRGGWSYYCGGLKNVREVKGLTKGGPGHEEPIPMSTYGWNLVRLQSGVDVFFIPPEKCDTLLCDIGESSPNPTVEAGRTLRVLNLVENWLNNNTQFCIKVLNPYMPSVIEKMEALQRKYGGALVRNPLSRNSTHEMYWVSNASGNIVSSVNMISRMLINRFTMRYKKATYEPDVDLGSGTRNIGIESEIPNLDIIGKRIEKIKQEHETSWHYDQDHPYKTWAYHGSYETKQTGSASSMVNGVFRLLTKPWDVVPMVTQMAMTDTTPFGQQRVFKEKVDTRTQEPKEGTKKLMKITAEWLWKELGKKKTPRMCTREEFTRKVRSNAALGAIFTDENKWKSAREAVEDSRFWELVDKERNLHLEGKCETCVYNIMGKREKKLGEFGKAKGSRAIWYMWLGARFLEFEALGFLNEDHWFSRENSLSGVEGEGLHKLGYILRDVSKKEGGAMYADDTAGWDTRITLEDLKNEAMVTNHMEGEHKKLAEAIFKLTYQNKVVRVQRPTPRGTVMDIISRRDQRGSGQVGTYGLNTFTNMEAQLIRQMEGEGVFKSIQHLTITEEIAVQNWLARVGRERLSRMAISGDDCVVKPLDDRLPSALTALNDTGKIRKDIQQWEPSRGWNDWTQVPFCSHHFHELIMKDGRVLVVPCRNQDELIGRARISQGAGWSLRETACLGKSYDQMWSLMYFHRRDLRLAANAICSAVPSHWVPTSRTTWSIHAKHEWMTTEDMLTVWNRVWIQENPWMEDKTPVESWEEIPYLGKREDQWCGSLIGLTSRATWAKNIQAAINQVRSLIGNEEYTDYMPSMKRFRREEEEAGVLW
In assay [10] the target is Mitochondrial peptide methionine sulfoxide reductase (Bos taurus, UniProt P54149). The assay can be described thus: Absorbance-based biochemical high throughput dose response assay for activators of Methionine sulfoxide reductase A (MsrA). It is filed as functional.
Mitochondrial peptide methionine sulfoxide reductase, sequence (P54149 whole entry): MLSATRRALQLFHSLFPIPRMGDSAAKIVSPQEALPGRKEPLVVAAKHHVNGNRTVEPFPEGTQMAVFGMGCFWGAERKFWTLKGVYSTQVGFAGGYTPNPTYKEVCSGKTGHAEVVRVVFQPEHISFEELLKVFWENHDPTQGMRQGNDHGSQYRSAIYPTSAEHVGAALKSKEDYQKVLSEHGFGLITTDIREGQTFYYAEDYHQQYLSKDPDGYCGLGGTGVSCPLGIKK
The target in assay [11] is Matrix metalloproteinase-14 (Homo sapiens, UniProt P50281). The assay can be described thus: Dose Response confirmation of uHTS hits for a small molecule inhibitors of MT1-MMP activation in a fluorescence assay set 2. It is filed as functional.
A further assay has as its target Caspase-6 (Homo sapiens, UniProt P55212). The assay can be described thus: human caspase-6 inhibitors, dose response, biochemical, VEID-R110 fluorescence, cherry-pick (AID 720632).
The target in another assay is Beta-galactosidase (Escherichia coli, UniProt Q8VNN2). Description: Dose response counterscreen for EBI2 assay utilizing the enzyme, b-galactosidase. It is filed as functional.
Assay [12] concerns the target T6, Beta-2 adrenergic receptor (Homo sapiens, UniProt P07550). The assay can be described thus: Dose response for HTS for Beta-2AR agonists via FAP method from Powderset1. It is filed as functional.
The target of assay [13] is T6, Beta-2 adrenergic receptor. The assay can be described thus: beta2AR agonists driving receptor internalization, dose response, cell-based, FAP fluorogen, flow cytometry, cherry pick 1 (AID 588763). In kind it is functional. (Flow cytometry measures light scatter and fluorescence of single cells or particles in a stream.)

T1 sequence (P11940 whole entry): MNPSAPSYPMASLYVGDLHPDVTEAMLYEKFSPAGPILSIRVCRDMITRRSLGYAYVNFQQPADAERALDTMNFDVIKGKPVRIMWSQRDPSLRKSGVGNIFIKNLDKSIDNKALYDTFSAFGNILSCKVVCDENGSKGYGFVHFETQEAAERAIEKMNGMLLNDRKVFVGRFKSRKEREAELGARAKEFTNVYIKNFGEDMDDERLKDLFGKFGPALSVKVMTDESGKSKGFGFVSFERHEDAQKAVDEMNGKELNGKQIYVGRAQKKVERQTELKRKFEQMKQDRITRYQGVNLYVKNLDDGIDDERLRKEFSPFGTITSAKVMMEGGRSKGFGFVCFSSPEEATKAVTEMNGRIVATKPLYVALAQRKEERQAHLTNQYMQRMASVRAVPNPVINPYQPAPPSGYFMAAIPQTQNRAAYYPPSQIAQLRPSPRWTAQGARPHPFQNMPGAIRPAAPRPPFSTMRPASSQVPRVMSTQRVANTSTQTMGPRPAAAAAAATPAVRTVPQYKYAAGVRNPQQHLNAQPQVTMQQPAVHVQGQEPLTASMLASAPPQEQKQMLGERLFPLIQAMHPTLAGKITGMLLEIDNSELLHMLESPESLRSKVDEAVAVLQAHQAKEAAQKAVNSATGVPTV
T6 sequence (P07550 whole entry): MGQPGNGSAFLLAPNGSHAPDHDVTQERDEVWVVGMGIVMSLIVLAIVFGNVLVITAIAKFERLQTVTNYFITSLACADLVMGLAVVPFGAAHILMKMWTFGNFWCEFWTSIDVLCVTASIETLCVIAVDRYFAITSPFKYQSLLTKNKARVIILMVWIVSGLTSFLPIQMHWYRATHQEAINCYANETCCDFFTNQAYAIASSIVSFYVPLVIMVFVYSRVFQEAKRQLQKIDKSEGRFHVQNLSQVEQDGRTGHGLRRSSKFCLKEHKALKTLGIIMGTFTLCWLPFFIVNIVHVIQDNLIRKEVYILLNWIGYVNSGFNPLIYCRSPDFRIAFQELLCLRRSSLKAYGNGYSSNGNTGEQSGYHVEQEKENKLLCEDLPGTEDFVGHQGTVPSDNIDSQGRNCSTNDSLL
Nuclear receptor subfamily 5 group A member 2, sequence (O00482 whole entry): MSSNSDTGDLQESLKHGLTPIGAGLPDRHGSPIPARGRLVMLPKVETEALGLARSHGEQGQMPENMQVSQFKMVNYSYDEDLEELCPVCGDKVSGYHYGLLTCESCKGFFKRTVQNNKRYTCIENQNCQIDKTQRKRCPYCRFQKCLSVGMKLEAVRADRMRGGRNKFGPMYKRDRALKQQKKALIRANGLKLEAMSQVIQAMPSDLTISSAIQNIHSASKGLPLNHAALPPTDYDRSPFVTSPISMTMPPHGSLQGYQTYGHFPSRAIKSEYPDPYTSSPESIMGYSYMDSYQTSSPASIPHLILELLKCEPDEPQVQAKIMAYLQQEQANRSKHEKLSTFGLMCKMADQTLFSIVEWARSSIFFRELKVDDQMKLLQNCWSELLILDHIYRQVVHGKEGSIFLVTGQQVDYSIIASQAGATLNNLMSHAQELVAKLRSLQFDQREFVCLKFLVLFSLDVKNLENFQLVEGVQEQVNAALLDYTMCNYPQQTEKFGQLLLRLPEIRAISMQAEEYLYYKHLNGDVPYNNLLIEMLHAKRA
Mu-type opioid receptor, sequence (P35372 whole entry): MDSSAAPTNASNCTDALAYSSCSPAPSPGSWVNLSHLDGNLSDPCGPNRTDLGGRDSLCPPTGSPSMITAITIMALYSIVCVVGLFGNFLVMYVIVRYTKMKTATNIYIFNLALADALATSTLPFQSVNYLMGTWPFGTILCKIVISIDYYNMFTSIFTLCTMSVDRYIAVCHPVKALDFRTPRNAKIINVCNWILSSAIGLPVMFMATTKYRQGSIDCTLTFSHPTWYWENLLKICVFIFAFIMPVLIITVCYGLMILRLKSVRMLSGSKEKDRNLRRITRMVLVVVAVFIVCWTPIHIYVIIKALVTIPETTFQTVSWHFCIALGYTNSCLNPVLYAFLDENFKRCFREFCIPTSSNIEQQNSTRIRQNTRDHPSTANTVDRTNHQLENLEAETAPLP
Caspase-6, sequence (P55212 24-179 limits assumed): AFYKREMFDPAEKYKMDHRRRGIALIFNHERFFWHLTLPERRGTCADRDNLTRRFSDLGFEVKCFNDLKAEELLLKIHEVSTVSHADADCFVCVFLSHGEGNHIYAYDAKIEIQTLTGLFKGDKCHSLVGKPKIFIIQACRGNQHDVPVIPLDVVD
Caspase-6, sequence (P55212 194-293 limits assumed): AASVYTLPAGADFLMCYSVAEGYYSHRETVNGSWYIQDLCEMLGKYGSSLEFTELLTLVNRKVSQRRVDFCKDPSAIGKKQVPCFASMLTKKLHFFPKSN

`Cc1cc2ccccc2n1CCNC(=O)c1ccc(Br)o1`: the IC50 in [1] and in [2] was > 66 µM (inactive) each time. Also, the AC50 – broadly, the concentration giving half of the maximal activity seen – at Protein S100-A4 is 6.02 µM (active).

For `CCN(c1ccc(OC)cc1)c1[nH]cnc2ncnc1-2`, the concentration for a half-maximal effect (EC50) (as a rule, the concentration at which the effect is half-maximal) in assay [3] was 21.8 µM (active). For the same compound, the values for the IC50 at Interleukin-8 [4] and at Interleukin-8 [5] were > 79 µM (inactive) and 14.5 µM (inactive), respectively.

As to `COC(=O)c1ccc(NC(=O)CSc2nc3ccc[nH]c-3n2)cc1`, the figures for the IC50 (in assay [6]; on Steroidogenic factor 1; in assay [7]) were 35.9 µM (inactive), 0.978 µM (active) and 35.9 µM (inactive), respectively.

Take `O=C(Cn1cnc2ccccc2c1=O)N1CCN(Cc2ccc3c(c2)OCO3)CC1`: the EC50 at Mu-type opioid receptor was 92.5 µM (inactive); in assay [8], 16.4 µM (inactive).

As to `CC(=O)Nc1cccc(C(=O)OC(C)C(=O)NC(=O)NC2CCCCC2)c1` (stereo unspecified), in the assay with Vero, the half-maximal activity concentration (AC50) is 23.6 µM (active).

As for `C[n+]1c2ccccc2nc2ccc(NCCO)cc21`, the figures for the half-maximal activity concentration (AC50) (in assay [9]; at Caspase-6) were 19.9 µM (active) and 3.35 µM (active), respectively. Also, the values for the EC50 (on Protein RecA; in assay [10]) were 2.38 µM (active) and 3.53 µM (active), respectively. The IC50 at Genome polyprotein was 18.6 µM (active); in assay [11], 10.5 µM (active).

For the compound `O=C(/C=C/c1ccc(Cl)cc1)N1CCN(c2c(Cl)cccc2[N+](=O)[O-])CC1`, on Beta-galactosidase, the IC50 was > 80 µM (inactive).

`CN(CC(=O)N1CCN(c2ccccn2)CC1)S(=O)(=O)c1ccccc1`: the concentration giving a half-maximal response (EC50) in [12] was 0.0435 µM (active); in [13] it was 0.274 µM (active).
